These results are taken from paper PMC8950868, “Identifying Human PTP1B Enzyme Inhibitors from Marine Natural Products: Perspectives for Developing of Novel Insulin-Mimetic Drugs” (Pharmaceuticals, 2022).

Assay [1] concerns the target T1, human recombinant PTP1B (1–302) (Homo sapiens, UniProt P18031).
T1 construct: human recombinant PTP1B (1–302)
T1 sequence (P18031 1-302): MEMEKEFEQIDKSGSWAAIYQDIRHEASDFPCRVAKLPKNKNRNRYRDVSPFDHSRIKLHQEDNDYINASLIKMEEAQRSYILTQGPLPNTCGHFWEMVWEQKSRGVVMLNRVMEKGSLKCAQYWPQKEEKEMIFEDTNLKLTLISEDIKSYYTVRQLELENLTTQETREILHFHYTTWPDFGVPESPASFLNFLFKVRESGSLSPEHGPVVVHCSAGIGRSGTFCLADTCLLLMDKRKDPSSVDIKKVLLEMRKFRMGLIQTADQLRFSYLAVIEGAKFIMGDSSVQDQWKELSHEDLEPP
The assay can be described thus: PTP1B enzymatic assay (p-NPP hydrolysis; preliminary screening and IC50). The conditions noted are these: for Effect on PTP1B activity in preliminary screening: 20 µM of each compound, 30 min; for IC50: 2.5 mM p-NPP, pH 7.0, 37 °C, mean ± SD (n = 3), read-out: IC50 values determined on PTP1B. It counts as biochemical. Here is the method: We performed enzymatic assays as previously described. For each assay, an aliquot of human recombinant PTP1B (1–302) was added in the assay buffer (0.075 M β,β-dimethylglutarate pH 7.0 containing 1 mM EDTA, 0.1 mM DTT and a p-nitrophenylphosphate (p-NPP) (Chemcruz, Santa Cruz Biotechnology (Santa Cruz, CA, USA)). The reactions were performed at 37 °C in a final volume of 1 mL. After adequate time (30 min) of incubation, the reactions were stopped adding 2 mL of 0.1 M KOH in each sample. The released amount of p-nitrophenol, product of the reaction, was determined by measuring the absorbance at 400 nm in a 1 cm pathlength cuvette.
The IC50 value of compounds against PTP1B was determined by measuring the hydrolysis rate of the enzyme in the presence of a fixed substrate concentration (2.5 mM p-NPP) and increasing inhibitor concentrations (generally 14–16 different concentrations). Each test was carried out in triplicate. Experimental data were normalized respect to control samples and then fitted using a non-linear fitting software, using the following equation: Vi/V0=Max−Min/1+x/IC50^slope+Min where the Vi/V0 value represents the relative activity calculated in presence of each inhibitor concentration; the maximum and minimum value of the activity are represented by “Max” and “Min”, respectively; “x” is the concentration of the inhibitor; IC50 is the inhibitor concentration able to decrease the enzymatic activity up to 50%; “slope” represents the slope of the curve in the transition zone.
Figure 2 Preliminary screening assay on PTP1B. All assays were started by diluting an aliquot of PTP1B in the assay solution containing substrate alone (control test) or substrate and an aliquot of each compound (20 µM, final concentration). After 30 min, the reactions were stopped by adding a concentrated KOH solution. The enzyme activity was determined by measuring the amount of p-nitrophenol that was released in each sample using a spectrophotometer. Data obtained were normalized respect to control sample. […] Statistical analysis was carried out using one way ANOVA followed by Tukey’s HSD test for pairwise comparisons. Statistics have been drawn on raw data and compare samples to control (Ctr). * p < 0.05; ** p < 0.01.
Figure 3 Determination of the IC50 values with compounds 3, 8a, 8b, 9a and 9b. An aliquot of PTP1B enzyme was diluted in the presence of increasing concentration of the compounds. The activity of PTP1B was determined by measuring the absorbance of the sample at 400 nm, using a spectrophotometer. Data obtained were normalized respect to the control sample and analysed using a non-linear fitting software.

Assay [2] addresses T2, human recombinant AR (Homo sapiens, UniProt P15121).
T2 construct: made in house
Put plainly: AR enzymatic assay (NADPH oxidation, L-idose substrate). To be noted: for % residual activity of human AR / remaining activity at 210 µM: 210 µM (maximal concentration used); for % residual activity of human AR: 210 µM; for remaining activity at 43 µM: 43 µM (maximal concentration used). It counts as biochemical. The method, then: The human recombinant AR, purified to electrophoretic homogeneity as described, was used as target enzyme. AR activity was determined at 37 °C as previously described by evaluating the decrease in absorbance at 340 nm linked to NADPH oxidation using a Biochrom Libra S60 spectrophotometer. The standard assay mixture contained 0.25 M sodium phosphate buffer pH 6.8, 0.18 mM NADPH, 0.42 M ammonium sulfate, 0.5 mM EDTA and 4.7 mM D,L-glyceraldehyde. One unit of enzyme activity is the amount that catalyses the conversion of 1 µmol of substrate/min in the above assay conditions. For AR inhibition studies, 0.8 mM L-idose was used as substrate in the conditions described above, in the presence of 10 mU of enzyme and of a final concentration of DMSO of 0.7% (v/v).

Assay [3] concerns GST–PTP1B fusion protein. Further details: method as in PMID 27064611. The conditions noted are these: different pH value, read-out: IC50 on PTP1B previously determined; cited from earlier work.
In assay [4] the test system is PTP1B. Further details: method as in PMID 34677434. The conditions noted are these: cited from earlier work.
The test system of assay [5] is AR. Further details: method as in PMID 34677434. The conditions noted are these: cited from earlier work.
Assay [6] concerns HepG2 cells. Further details: method as in PMID 34677434. The conditions noted are these: cited from earlier work.
[7] abbreviates: read-out: % residual activity of human AR.

Broadly, the IC50 is the concentration that inhibits the measured activity by half.

`CCCCC[C@H](O)[C@H](O)CC[C@H](CCCC)OC(C)=O` (relative stereo) [Compound 7b]: in assay [1], the “Effect on PTP1B activity in preliminary screening” value (from here on “Effect on PTP1B activity”) is “loss of activity”.

`O=C(O)CNC(=O)CCCCCC[C@H](O)CCCO` [Compound 2]: the “Effect on PTP1B activity” value in assay [1] was “loss of activity”. Moreover, the “AR inhibition (in words)” value in assay [2] is listed as “ineffective”. Moreover, in assay [2] (71 µM (maximal concentration used), read-out: % residual activity of human AR), the remaining activity at 71 µM came to 103 ± 4%.

As to `CCCCC[C@H](OP(=O)(O)O)[C@H](O)CC[C@H](CCCC)OC(C)=O` (relative stereo) [Compound 8b], in assay [1], the “Effect on PTP1B activity” value is reported as “reducing PTP1B activity” and the IC50 stood at 37.1 ± 6.5 µM. Besides, the “% residual activity of human AR” value in assay [2] was 74 ± 8%. For the same compound, in assay [2] (setting [7]), the remaining activity at 210 µM was determined as 76%.

Turning to `CCCCC[C@H](O)[C@H](O)CC[C@@H](O)CCCC` [Compound 4b, (5S,8R,9S)-tetradecane-5,8,9-triol], the “Effect on PTP1B activity” value in assay [1] was “loss of activity”. Besides, the remaining activity at 43 µM in assay [2] (setting [7]) is 98 ± 3%.

For `CCCCC[C@H](O)[C@@H](CC[C@H](CCCC)OC(C)=O)OP(=O)(O)O` (relative stereo) [Compound 9b], in assay [1], the “Effect on PTP1B activity” value is reported as “reducing PTP1B activity” and the IC50 amounted to 63 ± 14 µM. The “% residual activity of human AR” value in assay [2] is reported as 74 ± 6%. In addition, the remaining activity at 210 µM in assay [2] (setting [7]) was found to be 77%.

Consider `CCCCC[C@@H](O)[C@@H](O)CC[C@@H](O)CCCC` [Compound 4a, (5S,8S,9R)-tetradecane-5,8,9-triol], for which the “Effect on PTP1B activity” value in assay [1] was “loss of activity”. Further, the remaining activity at 43 µM in assay [2] (setting [7]) was found to be 97 ± 4%.

As to `CCCCC[C@@H](O)[C@@H](O)CC[C@H](CCCC)OC(C)=O` (relative stereo) [Compound 7a], the “Effect on PTP1B activity” value in assay [1] is “loss of activity”.

With `CCCCCCCCCCCCCCC(OP(=O)(O)O)C(O)CCC(O)C(O)CCC(O)CCCCCCC(=O)NCC(=O)O` (stereo not shown) [Phosphoeleganin, phosphoeleganin], the figures for the 50% inhibitory concentration (IC50) in assay [1] and in assay [3] were 0.7 ± 0.1 µM and 11 ± 2 µM, respectively. In addition, in assay [4], the “Type of PTP1B inhibition” value is on record as “pure non-competitive inhibitor”. Moreover, in assay [5], the “Type of AR inhibition” value is recorded as “mixed-type inhibitor”. Further, the “Activity in HepG2 cells” value in assay [6] is given as “insulin-sensitizing activity”.

Regarding `CCCCC[C@@H](O)[C@H](CC[C@H](CCCC)OC(C)=O)OP(=O)(O)O` (relative stereo) [Compound 9a], in assay [1], the “Effect on PTP1B activity” value is “reducing PTP1B activity” and the IC50 was determined as 83 ± 15 µM. Moreover, the remaining activity at 107 µM in assay [2] (107 µM (maximal concentration used), read-out: % residual activity of human AR) worked out at 86 ± 2%.
